Reference: patent publication US20070082880A1 (priority 2005, published 2007)

Molecular target: T1, human PKCθ full length enzyme (Homo sapiens, UniProt Q04759)
T1 construct: human PKCθ full length enzyme (Panvera Catalog No. P2996); purchased Panvera P2996
Assay: PKCθ IMAP Assay
Type: biochemical
Conditions: average value when one or more samples were tested; ATP 6 uM, PKCθ 1 nM
Experimental: The materials used include the following: human PKCθ full length enzyme (Panvera Catalog No. P2996); substrate peptide: 5FAM-[…]-OH (Molecular Devices, RP7032); ATP (Sigma Cat # A2383); DTT (Pierce, 20291); 5× kinase reaction buffer (Molecular Devices, R7209); 5× binding buffer A (Molecular Devices, R7282), 5× binding buffer B (Molecular Devices, R7209); IMAP Beads (Molecular Devices, R7284); and 384-well plates (Corning Costar, 3710).
The reaction buffer was prepared by diluting the 5× stock reaction buffer and adding DTT to obtain a concentration of 3.0 mM. The binding buffer was prepared by diluting the 5× binding buffer A. A master mix solution was prepared using a 90% dilution of the reaction buffer containing 2×ATP (12 uM) and 2× peptide ([…]). […] The final concentration of compound was 2× and 10% DMSO. DMSO was added to the rest of the master mix to increase the concentration to 10%. 10 ul of the master mix containing 10% DMSO was added to the rest of the wells on the plate except the 2nd column. 20 ul was transferred from the first column to the 2nd column. The compounds were serially diluted in 2:1 ratio starting from the 2nd column. A 2× (2 nM) PKCθ solution was made in the reaction buffer. 10 ul of the PKCθ solution was added to every well to achieve these final concentrations: PKCθ—1 nM; ATP—6 uM; peptide—100 nM; DMSO—5%. Samples were incubated for 25 minutes at room temperature. The binding reagent was prepared by diluting the beads in 1× binding buffer to 800:1. 50 ul of the binding reagent was added to every well and incubated for 20 minutes. FP was measured using Envision2100 (PerkinElmer Life Sciences). Wells with no ATPs and wells with no enzymes were used as controls.

T1 sequence (Q04759 whole entry): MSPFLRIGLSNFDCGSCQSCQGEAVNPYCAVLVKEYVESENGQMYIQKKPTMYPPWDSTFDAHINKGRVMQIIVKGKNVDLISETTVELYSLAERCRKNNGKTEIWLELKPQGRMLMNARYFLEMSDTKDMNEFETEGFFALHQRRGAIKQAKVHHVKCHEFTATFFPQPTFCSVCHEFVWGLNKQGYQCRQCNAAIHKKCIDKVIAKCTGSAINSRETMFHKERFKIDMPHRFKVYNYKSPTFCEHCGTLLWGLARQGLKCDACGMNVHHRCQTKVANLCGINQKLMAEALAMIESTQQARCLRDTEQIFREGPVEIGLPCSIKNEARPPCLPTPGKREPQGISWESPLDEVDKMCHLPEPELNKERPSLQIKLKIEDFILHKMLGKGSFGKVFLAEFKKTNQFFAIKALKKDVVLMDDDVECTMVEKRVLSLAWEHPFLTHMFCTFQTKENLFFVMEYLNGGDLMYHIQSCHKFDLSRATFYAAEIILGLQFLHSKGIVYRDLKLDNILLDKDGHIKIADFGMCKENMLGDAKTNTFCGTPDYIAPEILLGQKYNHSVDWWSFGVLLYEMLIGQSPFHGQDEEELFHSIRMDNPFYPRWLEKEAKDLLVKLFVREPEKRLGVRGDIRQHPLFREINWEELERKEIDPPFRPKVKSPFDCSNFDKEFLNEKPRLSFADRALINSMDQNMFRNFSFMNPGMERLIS

| SMILES | IC50 [µM] |
| --- | --- |
| CS(=O)(=O)c1cccc(-c2cc3c(Nc4ccc5[nH]ccc5c4)c(C#N)cnc3s2)c1 [Compound 239, 4-(1H-indol-5-ylamino)-2-[3-(methylsulfonyl)phenyl]thieno[2,3-b]pyridine-5-carbonitrile] | 1.1 |
| Cc1c(Nc2c(C#N)cnc3sc(-c4cccc(S(N)(=O)=O)c4)cc23)ccc2[nH]ccc12 [Compound 240, 3-{5-cyano-4-[(4-methyl-1H-indol-5-yl)amino]thieno[2,3-b]pyridin-2-yl}benzenesulfonamide] | 0.006 |
| Cc1c(Nc2c(C#N)cnc3sc(-c4ccc(S(N)(=O)=O)cc4)cc23)ccc2[nH]ccc12 [Compound 241, 4-{5-cyano-4-[(4-methyl-1H-indol-5-yl)amino]thieno[2,3-b]pyridin-2-yl}benzenesulfonamide] | 0.013 |
| N#Cc1cnc2sc(-c3ccc(S(N)(=O)=O)cc3)cc2c1Nc1ccc2[nH]ccc2c1 [Compound 242, 4-[5-cyano-4-(1H-indol-5-ylamino)thieno[2,3-b]pyridin-2-yl]benzenesulfonamide] | 0.38 |
| N#Cc1cnc2sc(C(=O)Nc3cccnc3)cc2c1Nc1ccc2[nH]ccc2c1 [Compound 251, 5-cyano-4-(1H-indol-5-ylamino)-N-pyridin-3-ylthieno[2,3-b]pyridine-2-carboxamide] | 1.67 |
| Cc1c(Nc2c(C#N)cnc3sc(C(=O)Nc4ccncc4)cc23)ccc2[nH]ccc12 [Compound 257, 5-cyano-4-[(4-methyl-1H-indol-5-yl)amino]-N-pyridin-4-ylthieno[2,3-b]pyridine-2-carboxamide] | 0.025 |
| Cc1c(Nc2c(C#N)cnc3sc(C(=O)Nc4ccccc4)cc23)ccc2[nH]ccc12 [Compound 258, 5-cyano-4-[(4-methyl-1H-indol-5-yl)amino]-N-phenylthieno[2,3-b]pyridine-2-carboxamide] | 0.126 |
| Cc1c(Nc2c(C#N)cnc3sc(C(=O)NCc4ccccc4)cc23)ccc2[nH]ccc12 [Compound 259, N-benzyl-5-cyano-4-[(4-methyl-1H-indol-5-yl)amino]thieno[2,3-b]pyridine-2-carboxamide] | 0.155 |

The next lines start with the values.

| IC50 [µM] | SMILES |
| --- | --- |
| 0.438 | COC(=O)c1cc2c(Nc3ccc4[nH]ccc4c3)c(C#N)cnc2s1 [Compound 246, methyl 5-cyano-4-(1H-indol-5-ylamino)thieno[2,3-b]pyridine-2-carboxylate] |
| 1.04 | N#Cc1cnc2sc(C(=O)N3CCCC3)cc2c1Nc1ccc2[nH]ccc2c1 [Compound 250, 4-(1H-indol-5-ylamino)-2-(pyrrolidin-1-ylcarbonyl)thieno[2,3-b]pyridine-5-carbonitrile] |
| 0.959 | N#Cc1cnc2sc(C(=O)Nc3ccncc3)cc2c1Nc1ccc2[nH]ccc2c1 [Compound 252, 5-cyano-4-(1H-indol-5-ylamino)-N-pyridin-4-ylthieno[2,3-b]pyridine-2-carboxamide] |
| 2.28 | CN1CCN(C(=O)c2cc3c(Nc4ccc5[nH]ccc5c4)c(C#N)cnc3s2)CC1 [Compound 253, 4-(1H-indol-5-ylamino)-2-[(4-methylpiperazin-1-yl)carbonyl]thieno[2,3-b]pyridine-5-carbonitrile] |
| 0.864 | N#Cc1cnc2sc(C(=O)NCCO)cc2c1Nc1ccc2[nH]ccc2c1 [Compound 254, 5-cyano-N-(2-hydroxyethyl)-4-(1H-indol-5-ylamino)thieno[2,3-b]pyridine-2-carboxamide] |
| 0.276 | Cc1c(Nc2c(C#N)cnc3sc(C(=O)N4CCOCC4)cc23)ccc2[nH]ccc12 [Compound 255, 4-[(4-methyl-1H-indol-5-yl)amino]-2-(morpholin-4-ylcarbonyl)thieno[2,3-b]pyridine-5-carbonitrile] |
| 0.334 | Cc1c(Nc2c(C#N)cnc3sc(C(=O)N4CCN(C)CC4)cc23)ccc2[nH]ccc12 [Compound 256, 4-[(4-methyl-1H-indol-5-yl)amino]-2-[(4-methylpiperazin-1-yl)carbonyl]thieno[2,3-b]pyridine-5-carbonitrile] |
